Results published in article PMC9270327 (Communications Biology, 2022).
Like-named read-outs stand apart in the source and are kept apart here.

Columns and labels:
[1] = test system: SARS-CoV-2 Wuhan-Hu-1, Caco-2 cells; type: cell-based; settings: for SARS-CoV-2 infection, Mean (0 nM = 100): Fig. 6a, Wuhan-Hu-1
TMPRSS2 = TMPRSS2 (Homo sapiens, UniProt O15393); type: biochemical; parameters: purchased Creative BioMart (New York, USA) or LSBio (Seattle, USA); settings: for TMPRSS2 activity, Mean (Fig. 2a): normalized, 0 nM = 100
From the text: Recombinant human TMPRSS2 was purchased from Creative BioMart (New York, USA) or LSBio (Seattle, USA), factor Xa was obtained from Bio-Techne GmbH (Wiesbaden, Germany). Recombinant human thrombin and matriptase protein were purchased from R&D Systems (Minneapolis, MN, USA).

[2] = test system: lentiviral pseudoparticles carrying SARS-CoV-2 Wuhan-Hu-1 spike, Caco-2 cells; type: cell-based
[3] = target: cellular TMPRSS2 activity, Caco-2 cells (Homo sapiens, UniProt O15393); settings: for cellular protease activity on Caco-2 cells, Mean (Fig. 4a): normalized, 0 nM = 100
Experimental: (§1) In total, 10,000 Caco-2 cells (ATCC) in 100 µL EMEM medium supplemented with 10% FBS, 100 U/mL penicillin, […] streptomycin, and 2 mM glutamine (all Invitrogen, Germany) were seeded per well in a 96-well plate and incubated at 37 °C for 4 days until full confluency of the cells. The cells were washed two times with PBS and EMEM medium without FBS was added. […] The fluorescence intensity was measured as described above. In all, 20,000 HEK293T cells (ATCC) were seeded in 100 µL DMEM supplemented with 10% FBS, 100 U/mL penicillin, […] streptomycin, and 2 mM glutamine. […] After 14 h, transfection mix was removed from the cells and 80 µL fresh medium without FBS and 10 µL inhibitors were added (final concentration 50 µM). […] Fluorescence intensity was measured after 2 h at 37 °C as described above.

[4] = target: T1, TMPRSS2 expressed in HEK293T cells (Homo sapiens, UniProt O15393); experiment: Inhibition of cellular TMPRSS2 activity on HEK293T cells transiently expressing TMPRSS2; type: cell-based; settings: 2 h; for normalized fluorescence intensity, HEK293T TMPRSS2, Mean (Fig. 4b): corrected for mock-transfected cells
T1 construct: host or cells: HEK293T (ATCC)
Experimental: as §1, with “After 14 h, transfection mix was removed from the cells and 80 µL fresh medium without FBS and 10 µL inhibitors were added (final concentration 50 µM).” left out

[5] = target: T2, recombinant human matriptase (Homo sapiens, UniProt Q9Y5Y6); experiment: Enzyme inhibition assay with purified matriptase (Ki, dose-response); type: biochemical; settings: for matriptase activity, Mean (Fig. 2b): normalized, 0 nM = 100
T2 construct: purchased R&D Systems (Minneapolis, MN, USA)
T2 sequence (Q9Y5Y6 1-855): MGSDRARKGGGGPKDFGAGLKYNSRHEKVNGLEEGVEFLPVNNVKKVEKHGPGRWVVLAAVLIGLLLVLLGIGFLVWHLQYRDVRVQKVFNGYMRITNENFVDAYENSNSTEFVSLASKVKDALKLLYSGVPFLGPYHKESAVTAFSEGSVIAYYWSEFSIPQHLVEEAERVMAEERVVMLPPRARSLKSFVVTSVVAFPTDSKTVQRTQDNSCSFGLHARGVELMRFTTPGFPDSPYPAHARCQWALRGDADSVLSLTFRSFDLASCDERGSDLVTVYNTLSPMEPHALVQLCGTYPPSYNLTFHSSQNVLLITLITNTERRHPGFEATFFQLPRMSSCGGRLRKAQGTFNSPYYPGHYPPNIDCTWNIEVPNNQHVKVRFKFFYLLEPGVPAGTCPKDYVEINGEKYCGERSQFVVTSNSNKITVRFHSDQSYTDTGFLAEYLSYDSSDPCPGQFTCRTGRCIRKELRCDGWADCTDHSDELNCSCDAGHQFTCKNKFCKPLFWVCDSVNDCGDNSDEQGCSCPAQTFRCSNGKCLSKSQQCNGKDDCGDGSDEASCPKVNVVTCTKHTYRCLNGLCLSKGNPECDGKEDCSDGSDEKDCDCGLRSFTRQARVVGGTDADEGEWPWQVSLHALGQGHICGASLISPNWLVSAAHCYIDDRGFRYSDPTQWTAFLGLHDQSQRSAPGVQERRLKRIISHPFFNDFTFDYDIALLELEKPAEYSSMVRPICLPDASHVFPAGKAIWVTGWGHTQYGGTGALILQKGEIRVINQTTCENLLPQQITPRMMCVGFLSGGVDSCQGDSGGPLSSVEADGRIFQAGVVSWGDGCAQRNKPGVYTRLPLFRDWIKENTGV

[6] = test system: lentiviral pseudoparticles carrying SARS-CoV-2 Delta (B.1.617.2) spike, Caco-2 cells; type: cell-based; settings: for SARS-CoV-2 spike driven entry, Mean (0 nM = 100): Fig. 5d

Chain of TMPRSS2 (O15393 whole entry): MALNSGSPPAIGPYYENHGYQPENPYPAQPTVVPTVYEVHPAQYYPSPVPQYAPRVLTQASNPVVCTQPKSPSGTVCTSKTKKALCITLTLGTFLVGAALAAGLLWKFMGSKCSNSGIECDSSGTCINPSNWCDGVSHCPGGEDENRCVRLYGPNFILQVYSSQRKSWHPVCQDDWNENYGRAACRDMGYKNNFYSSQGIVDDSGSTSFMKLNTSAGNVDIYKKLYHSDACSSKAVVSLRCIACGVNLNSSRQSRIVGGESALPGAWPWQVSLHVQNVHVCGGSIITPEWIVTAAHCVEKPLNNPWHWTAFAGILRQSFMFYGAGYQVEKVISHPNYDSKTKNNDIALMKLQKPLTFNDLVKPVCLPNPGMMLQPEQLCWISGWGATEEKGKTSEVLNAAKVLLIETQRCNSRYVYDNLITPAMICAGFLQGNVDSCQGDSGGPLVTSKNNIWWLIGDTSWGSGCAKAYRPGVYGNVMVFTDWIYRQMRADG
T1 sequence (O15393 whole entry): as above
Chain of cellular TMPRSS2 activity, Caco-2 cells (O15393 whole entry): as above

## ace-Arg-Pro-Arg-kbt [Compound 2]
[1]; compound 32 nM
  SARS-CoV-2 infection, Mean (0 nM = 100): 97.173
[1]; compound 160 nM
  SARS-CoV-2 infection, Mean (0 nM = 100): 99.3408
[1]; compound 800 nM
  SARS-CoV-2 infection, Mean (0 nM = 100): 95.9056
[1]; compound 4000 nM
  SARS-CoV-2 infection, Mean (0 nM = 100): 58.4381
[1]; compound 20000 nM
  SARS-CoV-2 infection, Mean (0 nM = 100): 1.12
[1]; compound 100000 nM
  SARS-CoV-2 infection, Mean (0 nM = 100): -2.857
[1]; read-out: IC50 SARS-CoV-2 Wuhan-Hu-1
  IC50: 4.57 µM
[1]; read-out: IC50 SARS-CoV-2 Wuhan-Hu-1 (text)
  IC50: 4.6 µM
TMPRSS2; 0.05 nM
  TMPRSS2 activity, Mean (Fig. 2a): 92
TMPRSS2; 0.5 nM
  TMPRSS2 activity, Mean (Fig. 2a): 90.3158
TMPRSS2; 5 nM
  TMPRSS2 activity, Mean (Fig. 2a): 62.9474
TMPRSS2; 50 nM
  TMPRSS2 activity, Mean (Fig. 2a): 19.7895
TMPRSS2; 500 nM
  TMPRSS2 activity, Mean (Fig. 2a): 3.789
TMPRSS2; 5000 nM
  TMPRSS2 activity, Mean (Fig. 2a): 0.6316
TMPRSS2; 50000 nM
  TMPRSS2 activity, Mean (Fig. 2a): 0.4211
TMPRSS2; 500000 nM
  TMPRSS2 activity, Mean (Fig. 2a): -1.895
TMPRSS2; 30 min preincubation, substrate Boc-Gln-Ala-Arg-AMC, Ki from IC50 by Cheng–Prusoff
  Ki: 3.8 nM
TMPRSS2; ratio of Ki values
  fold more active than FOY-251 against isolated TMPRSS2: 2–3 fold
[2]
  SARS-CoV-2 spike driven entry, Mean (0 nM = 100): 93.4665
[2]; Caco-2 cells, luciferase 2 days post transduction, read-out: IC50 pseudotyped lentivirus Wuhan-Hu-1
  IC50: 1620 nM
[2]; Fig. 5a, compound 160 nM, […]
  SARS-CoV-2 spike driven entry, Mean (0 nM = 100): 93.5815
[2]; Fig. 5a, compound 800 nM, […]
  SARS-CoV-2 spike driven entry, Mean (0 nM = 100): 73.183
[2]; Fig. 5a, compound 4000 nM, […]
  SARS-CoV-2 spike driven entry, Mean (0 nM = 100): 22.027
[2]; Fig. 5a, compound 20000 nM, […]
  SARS-CoV-2 spike driven entry, Mean (0 nM = 100): 3.879
[2]; Fig. 5a, compound 100000 nM, […]
  SARS-CoV-2 spike driven entry, Mean (0 nM = 100): 2.5725
[3]; 0.1 nM
  cellular protease activity on Caco-2 cells, Mean (Fig. 4a): 109.802
[3]; 1 nM
  cellular protease activity on Caco-2 cells, Mean (Fig. 4a): 82.1942
[3]; 10 nM
  cellular protease activity on Caco-2 cells, Mean (Fig. 4a): 70.6835
[3]; 100 nM
  cellular protease activity on Caco-2 cells, Mean (Fig. 4a): 32.9137
[3]; 1000 nM
  cellular protease activity on Caco-2 cells, Mean (Fig. 4a): -3.058
[3]; 10000 nM
  cellular protease activity on Caco-2 cells, Mean (Fig. 4a): 1.349
[3]; 100000 nM
  cellular protease activity on Caco-2 cells, Mean (Fig. 4a): 2.158
[3]; read-out: IC50 Caco2, cell-mediated proteolysis of Boc-Gln-Ala-Arg-AMC, 30 min preincubation
  IC50: 32 nM
[4]; 0.5 nM
  normalized fluorescence intensity, HEK293T TMPRSS2, Mean (Fig. 4b): 60.175
[4]; 5 nM
  normalized fluorescence intensity, HEK293T TMPRSS2, Mean (Fig. 4b): 47.265
[4]; 50 nM
  normalized fluorescence intensity, HEK293T TMPRSS2, Mean (Fig. 4b): 34.28
[4]; 500 nM
  normalized fluorescence intensity, HEK293T TMPRSS2, Mean (Fig. 4b): 7.97
[4]; 5000 nM
  normalized fluorescence intensity, HEK293T TMPRSS2, Mean (Fig. 4b): 0.76
[4]; 50000 nM
  normalized fluorescence intensity, HEK293T TMPRSS2, Mean (Fig. 4b): -5.7
[4]; corrected for mock-transfected HEK293T cells
  IC50: 3.5 nM
[5]; 0.1 nM
  matriptase activity, Mean (Fig. 2b): 101.198
[5]; 0.2 nM
  matriptase activity, Mean (Fig. 2b): 106.445
[5]; 1 nM
  matriptase activity, Mean (Fig. 2b): 70.3881
[5]; 10 nM
  matriptase activity, Mean (Fig. 2b): 45.9032
[5]; 100 nM
  matriptase activity, Mean (Fig. 2b): 8.529
[5]; 1000 nM
  matriptase activity, Mean (Fig. 2b): 0.7667
[5]; 50000 nM
  matriptase activity, Mean (Fig. 2b): -0.2875
[5]; 500000 nM
  matriptase activity, Mean (Fig. 2b): -0.6229
[5]; 30 min preincubation, substrate Boc-Gln-Ala-Arg-AMC
  Ki: 3.3 nM
[5]; quotient Ki matriptase / Ki TMPRSS2
  Selectivity index Matriptase: 0.9
[6]; Caco-2 cells, luciferase 2 days post transduction, read-out: IC50 pseudotyped lentivirus Delta
  IC50: 627 nM
[6]; compound 3.2 nM
  SARS-CoV-2 spike driven entry, Mean (0 nM = 100): 94.6384
[6]; compound 16 nM
  SARS-CoV-2 spike driven entry, Mean (0 nM = 100): 93.9983
[6]; compound 80 nM
  SARS-CoV-2 spike driven entry, Mean (0 nM = 100): 82.6624
[6]; compound 400 nM
  SARS-CoV-2 spike driven entry, Mean (0 nM = 100): 60.9224
[6]; compound 2000 nM
  SARS-CoV-2 spike driven entry, Mean (0 nM = 100): 29.6704
[6]; compound 10000 nM
  SARS-CoV-2 spike driven entry, Mean (0 nM = 100): 4.245
[6]; compound 50000 nM
  SARS-CoV-2 spike driven entry, Mean (0 nM = 100): 0.86
